Experimental findings from the Bradley open melting point set (2014) are described below.

Structures are written as SMILES. Where a name gives a salt, the structure may show the parent alone.

Compound `CCOC(=O)c1ccc(OC)cc1` [ethyl 4-methoxybenzoate] displayed a melting point of 8 °C.

Regarding `CC1=CC[C@@H]2C[C@H]1C2(C)C` [alpha-pinene], the melting point is -62 °C.

For `CCCCCCC(C)C` [2-Methyloctane], the melting point is -80 °C.

For `CCCCCCC#N` [heptanenitrile], the melting point was -64 °C.

`Cc1ccc(Cl)cc1` [4-chlorotoluene]: the melting point amounted to 8 °C.

Compound `CN1CCN(CCCN2c3ccccc3Sc3ccc(Cl)cc32)CC1` [prochlorperazine] registered a melting point of 228 °C.

`NC(CC(=O)O)C(=O)O` (stereo not given) [aspartic acid] came in with a melting point of 275 °C.

The compound `CCCCCCCCCCCCSc1cc(N(NC(=O)OC(C)(C)C)C(=O)OC(C)(C)C)cc(SCCCCCCCCCCCC)c1SCCCCCCCCCCCC` yielded a melting point of 50 °C.

With `C[N+](=O)[O-]` [nitromethane], the melting point is -29 °C.

The compound `NCCNCCNCCNCCN` came in with a melting point of -40 °C.

Take `OB(O)c1ccc(C(F)(F)F)cc1` [4-(trifluoromethyl)benzeneboronic acid]: the melting point stood at 240 °C.

As for `O=C(/C=C/c1ccccc1[N+](=O)[O-])c1cccc(O)c1` [(2E)-1-(3-Hydroxyphenyl)-3-(2-nitrophenyl)-2-propen-1-one], the melting point was 188 °C.

`Oc1ccccc1-c1ccccc1` [o-phenylphenol] returned a melting point of 60 °C.

Regarding `CCC(=O)OC` [Methyl propionate], the melting point is -88 °C.

The compound `CCCCCCCC` [N-octane] displayed a melting point of -57 °C.

In the case of `COc1c(OC)c(=O)c1=O` [3,4-dimethoxy-3-cyclobutene-1,2-dione], the melting point came out at 55 °C.

As for `O=S(=O)(Cl)c1ccc(Cl)c(Cl)c1Cl` [2,3,4-trichlorobenzenesulfonyl chloride], the melting point turned out to be 63 °C.

Compound `CCCCCCCCCl` [1-chlorooctane] came in with a melting point of -58 °C.

Compound `CCOC(=O)NCCOc1ccc(Oc2ccccc2)cc1` [fenoxycarb] came in with a melting point of 53.5 °C.

`CB(O)O` [methylboronic acid] showed a melting point of 92 °C.

Turning to `CC12CCC(CC1=O)C2(C)C` (stereo not given) [1,7,7-Trimethylbicyclo[2.2.1]heptan-2-one], the melting point amounted to 177 °C.

For the compound `O=C(O)C(F)c1ccccc1` (stereo not drawn) [alpha-fluorophenylacetic acid], the melting point is 80 °C.

`CCCCCCCCCCCCBr` [1-bromododecane] yielded a melting point of -10 °C.

`Cc1cc(C)c(N=C=O)c(C)c1` [2,4,6-trimethylphenyl isocyanate]: the melting point was determined as 45 °C.

On to `CCCCOC(=O)c1ccccc1C(=O)OCCCC` [di-n-butyl phthalate], for which the melting point was -35 °C.

`COC(=O)c1cc(O)c(O)c(O)c1` [methyl 3,4,5-trihydroxybenzoate]: the melting point is 201 °C.

As to `CCCN(CCC)S(=O)(=O)c1ccc(C(=O)O)cc1` [4-(Dipropylsulfamoyl)benzoic acid], the melting point amounted to 195 °C.

In turn, `Nc1ccc(S(=O)(=O)Nc2ncccn2)cc1` [sulfadiazine] displayed a melting point of 255 °C.

Compound `Cc1ccc(S(=O)(=O)CCO)cc1` [2-(p-toluenesulfonyl)ethanol] displayed a melting point of 52 °C.

Regarding `C[Si](C)(C)OS(=O)(=O)O[Si](C)(C)C` [bis(trimethylsilyl) sulfate], the melting point was 46 °C.

For the compound `O=C(O)CC(O)(CC(=O)O)C(=O)O` [citric acid, anhydrous], the melting point came to 154 °C.

`Cl/C=C\Cl` [cis-1,2-dichloroethylene] came in with a melting point of -80 °C.

Compound `ClCc1ccccc1Cl` [2-chlorobenzyl chloride] displayed a melting point of -13 °C.

`OCCCCO` [1,4-Butanediol]: the melting point was 20.1 °C.

`CC1=C(/C=C/C(C)=C/C=C/C(C)=C/C(=O)O)C(C)(C)CCC1` [retinoic acid] came in with a melting point of 181 °C.

Compound `O=Cc1ccc2c(c1)OCO2` [piperonal] displayed a melting point of 37 °C.

Turning to `O=C(O)CS` [Sulfanylacetic acid], the melting point was -16.5 °C.

On to `CC(C)(C(=O)O)c1ccccc1` [alpha,alpha-dimethylphenylacetic acid], for which the melting point was determined as 81 °C.

In the case of `Cc1nc(N)ccc1C#N` [6-amino-3-cyano-2-methylpyridine], the melting point stood at 165 °C.

Compound `Nc1ccc(S(=O)(=O)Nc2ccccn2)cc1` [sulfapyridine] showed a melting point of 192 °C.

`CCOC(=O)c1ccc(-n2cccc2)cc1` [ethyl 4-(1-pyrrolyl)benzoate]: the melting point is 75 °C.

On to `ClC(Cl)c1ccccc1` [a,a-dichlorotoluene], for which the melting point is -16 °C.

On to `CC(C)C(C)C` [2,3-Dimethylbutane], for which the melting point was -128 °C.

Compound `CC(=O)Oc1ccccc1C(=O)O` [2-Acetoxybenzoic acid] returned a melting point of 139 °C.

`C/C=C/CC` [(2E)-Pent-2-ene] came in with a melting point of -140 °C.

`O=C1CN(/N=C/c2ccc([N+](=O)[O-])o2)C(=O)N1` [nitrofurantoin] registered a melting point of 263 °C.

For the compound `c1cc2ccc3cccc4ccc(c1)c2c34` [Pyrene], the melting point came out at 150 °C.

`C1O[C@@H]1[C@H]1CO1` [butadiene diepoxide] came in with a melting point of -19 °C.

The compound `CC(C)(c1ccccc1)c1ccc(O)cc1` [4-cumylphenol] returned a melting point of 72 °C.

`CC(C)C(C)C` [2,3-dimethylbutane] gave a melting point of -129 °C.

Take `CCOC(=O)CC` [ethyl propionate]: the melting point is -73 °C.

`CC1(C)O[C@@H](CO)[C@H](CO)O1` [2,3-o-isopropylidene-l-threitol] yielded a melting point of 47 °C.

In turn, `O=C(O)c1ccccc1C(=O)O` [Phthalic Acid] had a melting point of 230 °C.

On to `C=CCOc1ccc(CC(=O)O)cc1Cl` [alclofenac], for which the melting point worked out at 92 °C.

With `CCOC(=O)C(=O)C(=O)OCC` [diethyl ketomalonate], the melting point is -70 °C.

Usually melting point stands for the temperature, or range, at which the solid turns liquid.
